In US20250163048A1 (Tango Therapeutics, Inc., priority 2022, published 2025):
Where two headings read alike, the source gives them in different places.

Legend:
[1] = system: HAP1 MTAP-deleted cell line; test: SDMA in-cell western assay, HAP1 MTAP-deleted; conditions: for IC50 / IC90: Homo sapiens; for Hap1 MTAP intact/deleted ratio: IC50 ratio between HAP1 MTAP-intact and HAP1 MTAP-deleted cell line
Description: (§1) HAP1 MTAP-intact is a cell line in which endogenous levels of MTAP are expressed, and HAP1 MTAP-deleted is an MTAP-null cell line.

[2] = system: HAP1 MTAP-intact cell line; test: SDMA in-cell western assay, HAP1 MTAP-intact; conditions: Homo sapiens
Description: as §1

MTAP-deleted cell line = test: viability assay for the MTAP-deleted cell line; assay type: cell-based; conditions: Homo sapiens, HAP1, viability assay
[3] = HAP1, read-out: Hap1 MTAP deleted IC50, SDMA in-cell western assay, HAP1 MTAP-deleted cell line
[4] = HAP1, read-out: Hap1 MTAP deleted IC90, SDMA in-cell western assay, HAP1 MTAP-deleted cell line
[5] = HAP1, read-out: Hap1 MTAP intact IC50, SDMA in-cell western assay, HAP1 MTAP-intact cell line
[6] = HAP1, read-out: Hap1 MTAP deleted IC50, SDMA in-cell western, HAP1 MTAP-deleted cell line
[7] = HAP1, read-out: Hap1 MTAP deleted IC90, SDMA in-cell western, HAP1 MTAP-deleted cell line
[8] = HAP1, read-out: Hap1 MTAP intact IC50, SDMA in-cell western, HAP1 MTAP-intact cell line
[9] = HAP1, read-out: Hap1 MTAP intact IC50

Row | Compound | IC50 [1, 3] [nM] | IC90 [1, 4] [nM] | Hap1 MTAP intact/deleted ratio ([1]; SDMA in-cell western assay) | IC50 [2, 5] [nM] | IC50 (MTAP-deleted cell line) [nM] | IC50 [1, 6] [nM] | IC90 [1, 7] [nM] | Hap1 MTAP intact/deleted ratio ([1]; SDMA in-cell western) | IC50 [2, 8] [nM] | IC50 [2, 9] [nM]
1 | Cc1ccc2ccc([C@H]3CC[C@H](C)CN3C(=O)C(=O)Nc3cnc(N)c4cn[nH]c34)cc2n1 (racemic) [Compound 215, N-(4-Amino-1H-pyrazolo[4,3-c]pyridin-7-yl)-2-oxo-2-[rac-(2R,5S)-5-methyl-2-(2-methyl-7-quinolyl)-1-piperidyl]acetamide] | < 5 | < 75 | C (“C” indicates an IC50 ratio of less than 15 fold) | 5 to 50 | < 100 |  |  |  |  | 
2 | CCn1nccc1[C@H]1CC[C@@H](C)CN1C(=O)C(=O)Nc1cnc(N)c2cn[nH]c12 (stereo in doubt) [Compound 285, N-(4-Amino-1H-pyrazolo[4,3-c]pyridin-7-yl)-2-oxo-2-[rac-(2R,5R)-2-(2-ethylpyrazol-3-yl)-5-methyl-1-piperidyl]acetamide] | 5 to 50 | > 125 | A (“A” indicates an IC50 ratio greater than or equal to 30 fold) | > 50 | 100 to 1000 |  |  |  |  | 
3 | Nc1ncc(NC(=O)C(=O)N2CCCCC2c2cccc(N3CCCC3)c2)c2[nH]ncc12 (single isomer, unassigned) [Compound 213] | 5 to 50 | > 125 | A (“A” indicates an IC50 ratio greater than or equal to 30 fold) | > 50 | 100 to 1000 |  |  |  |  | 
4 | C[C@H]1CC[C@H](c2cc(F)c(F)c(F)c2)N(C(=O)C(=O)Nc2cnc(N)c3cn[nH]c23)C1 [Compound 18, N-(4-amino-1H-pyrazolo[4,3-c]pyridin-7-yl)-2-((2R,5S)-5-methyl-2-(3,4,5-trifluorophenyl)piperidin-1-yl)-2-oxoacetamide] |  |  |  |  | < 100 | < 5 | < 75 | A (“A” indicates an IC50 ratio greater than or equal to 30 fold) | > 50 | 
5 | [2H]c1c([2H])c([2H])c([C@@H]2CC[C@H](C)CN2C(=O)C(=O)Nc2cnc(N)c3cn[nH]c23)c([2H])c1[2H] (single isomer, unassigned) [Compound 286] | 5 to 50 | > 125 |  |  | 100 to 1000 |  |  |  |  | > 50
6 | C[C@H]1CC[C@H](c2cccc(OCCN(C)C)c2)N(C(=O)C(=O)Nc2cncc3cn[nH]c23)C1 (single isomer, unassigned) [Compound 78] |  |  |  |  | 100 to 1000 | < 5 | < 75 | B (“B” indicates an IC50 ratio greater than or equal to 15 fold but lower than 30 fold) | > 50 | 
7 | C[C@H]1CC[C@H](c2ccc3sc([C@@H](C)CN(C)C)nc3c2)N(C(=O)C(=O)Nc2cncc3c(N)nccc23)C1 (relative stereo) [Compound 76, N-(8-amino-2,7-naphthyridin-4-yl)-2-((2R,5S)-2-(2-((S)-1-(dimethylamino)propan-2-yl)benzo[d]thiazol-5-yl)-5-methylpiperidin-1-yl)-2-oxoacetamide] |  |  |  |  | < 100 | 5 to 50 | < 75 | A (“A” indicates an IC50 ratio greater than or equal to 30 fold) | > 50 | 
8 | C[C@H]1CC[C@H](c2ccc(F)c(F)c2)N(C(=O)C(=O)Nc2cnc(N)c3cn[nH]c23)C1 [Compound 151, N-(4-amino-1H-pyrazolo[4,3-c]pyridin-7-yl)-2-((2R,5S)-2-(3,4-difluorophenyl)-5-methylpiperidin-1-yl)-2-oxoacetamide] |  |  |  |  | < 100 | < 5 | < 75 | A (“A” indicates an IC50 ratio greater than or equal to 30 fold) | > 50 | 
9 | C[C@H]1CC[C@H](c2ccc3sc([C@@H](C)N(C)C)nc3c2)N(C(=O)C(=O)Nc2cncc3cn[nH]c23)C1 (single isomer, unassigned) [Compound 167] |  |  |  |  | < 100 | 5 to 50 | < 75 | A (“A” indicates an IC50 ratio greater than or equal to 30 fold) | > 50 | 
10 | C[C@H]1CC[C@H](c2ccc3ccc(C4CCN(C)CC4)nc3c2)N(C(=O)C(=O)Nc2cncc3cn[nH]c23)C1 [Compound 42, 2-((2R,5S)-5-methyl-2-(2-(1-methylpiperidin-4-yl)quinolin-7-yl)piperidin-1-yl)-2-oxo-N-(1H-pyrazolo[4,3-c]pyridin-7-yl)acetamide] |  |  |  |  | < 100 | < 5 | < 75 | A (“A” indicates an IC50 ratio greater than or equal to 30 fold) | > 50 | 
11 | C[C@H]1CC[C@H](c2ccc3sc(C45CCC(CC4)N(C)C5)nc3c2)N(C(=O)C(=O)Nc2cncc3cn[nH]c23)C1 [Compound 54, 2-((2R,5S)-5-methyl-2-(2-(2-methyl-2-azabicyclo[2.2.2]octan-4-yl)benzo[d]thiazol-5-yl)piperidin-1-yl)-2-oxo-N-(1H-pyrazolo[4,3-c]pyridin-7-yl)acetamide] |  |  |  |  | < 100 | < 5 | < 75 | B (“B” indicates an IC50 ratio greater than or equal to 15 fold but lower than 30 fold) | 5 to 50 | 
12 | C[C@H]1CC[C@H](c2ccnc(OC3CC3)c2)N(C(=O)C(=O)Nc2cnc(N)c3cn[nH]c23)C1 (racemic) [Compound 247, N-(4-Amino-2H-pyrazolo[4,3-c]pyridin-7-yl)-2-oxo-2-[rac-(2R,5S)-2-[2-(cyclopropoxy)-4-pyridyl]-5-methyl-1-piperidyl]acetamide] | < 5 | < 75 | B (“B” indicates an IC50 ratio greater than or equal to 15 fold but lower than 30 fold) | 5 to 50 | < 100 |  |  |  |  | 
13 | C[C@H]1CC[C@H](c2ccc3sc([C@@H]4CCN(C)C[C@@H]4C)nc3c2)N(C(=O)C(=O)Nc2cncc3cn[nH]c23)C1 (relative stereo) [Compound 12, 2-oxo-N-(1H-pyrazolo[4,3-c]pyridin-7-yl)-2-[(2R,5S)-5-methyl-2-[2-[rel-(3R,4R)-1,3-dimethyl-4-piperidyl]-1,3-benzothiazol-5-yl]-1-piperidyl]acetamide] |  |  |  |  | < 100 | < 5 | < 75 | B (“B” indicates an IC50 ratio greater than or equal to 15 fold but lower than 30 fold) | > 50 | 
14 | CC(CN1CCCC1)c1nc2cc([C@H]3CC[C@H](C)CN3C(=O)C(=O)Nc3cncc4cn[nH]c34)ccc2s1 (stereo partly drawn) [Compound 100, 2-((2R,5S)-5-methyl-2-(2-(1-(pyrrolidin-1-yl)propan-2-yl)benzo[d]thiazol-5-yl)piperidin-1-yl)-2-oxo-N-(1H-pyrazolo[4,3-c]pyridin-7-yl)acetamide] |  |  |  |  | < 100 | < 5 | < 75 | A (“A” indicates an IC50 ratio greater than or equal to 30 fold) | > 50 | 
15 | C[C@H]1CC[C@H](c2ccc3scnc3c2)N(C(=O)C(=O)Nc2cncc3cn[nH]c23)C1 [Compound 26, 2-((2R,5S)-2-(benzo[d]thiazol-5-yl)-5-methylpiperidin-1-yl)-2-oxo-N-(1H-pyrazolo[4,3-c]pyridin-7-yl)acetamide] |  |  |  |  | 100 to 1000 | 5 to 50 | > 125 | A (“A” indicates an IC50 ratio greater than or equal to 30 fold) |  | > 50
16 | C[C@@H]1CC[C@@H](c2ccnn2C)N(C(=O)C(=O)Nc2cnc(N)c3cn[nH]c23)C1 (racemic) [Compound 115, N-(4-amino-1H-pyrazolo[4,3-c]pyridin-7-yl)-2-(rac-(2S,5R)-5-methyl-2-(1-methyl-1H-pyrazol-5-yl)piperidin-1-yl)-2-oxoacetamide] |  |  |  |  | < 100 | < 5 | < 75 | A (“A” indicates an IC50 ratio greater than or equal to 30 fold) | > 50 | 
17 | CNc1ncc(NC(=O)C(=O)N2C[C@@H](C)CC[C@@H]2c2ccc3scnc3c2)c2[nH]ncc12 [Compound 146, 2-((2R,5S)-2-(benzo[d]thiazol-5-yl)-5-methylpiperidin-1-yl)-N-(4-(methylamino)-1H-pyrazolo[4,3-c]pyridin-7-yl)-2-oxoacetamide] |  |  |  |  | 100 to 1000 | 5 to 50 | 75 to 125 | A (“A” indicates an IC50 ratio greater than or equal to 30 fold) | > 50 | 
18 | Nc1ncc(NC(=O)C(=O)N2CCCC[C@@H]2C2CCCC2)c2[nH]ncc12 (stereo in doubt) [Compound 127, N-(4-amino-1H-pyrazolo[4,3-c]pyridin-7-yl)-2-(2-cyclopentylpiperidin-1-yl)-2-oxoacetamide] |  |  |  |  | < 100 | < 5 | < 75 | A (“A” indicates an IC50 ratio greater than or equal to 30 fold) | > 50 | 
19 | CC(CN(C)C)c1nc2cc([C@H]3CC[C@H](C)CN3C(=O)C(=O)Nc3cncc4cn[nH]c34)ccc2s1 (stereo partly drawn) [Compound 21, 2-((2R,5S)-2-(2-(1-(dimethylamino)propan-2-yl)benzo[d]thiazol-5-yl)-5-methylpiperidin-1-yl)-2-oxo-N-(1H-pyrazolo[4,3-c]pyridin-7-yl)acetamide] |  |  |  |  | < 100 | < 5 | < 75 | C (“C” indicates an IC50 ratio of less than 15 fold) | 5 to 50 | 
